Assay results as given in patent US20220257727A1, “PHARMACEUTICAL COMPOSITION CONTAINING LYSOZYME AND USE THEREOF” (GUANGZHOU CENTURY CLINICAL RESEARCH., LTD., priority 2019, published 2022).

Experiments:
psoriasis [1] = experiment: Case studies of patients with drug-resistant psoriasis (PASI score, skin state, recurrence, tolerability)
From the text: (§1) Psoriasis can be divided into mild, moderate, and severe according to the severity. The severity can be determined by PASI (Psoriasis Area Severity Index) scores. PASI is a set of scoring indicators that are widely used internationally to reflect the severity of psoriasis. In the scoring system, four parts, i.e., the head, upper limbs, torso, and lower limbs, are used for comprehensive scoring according to indicators such as erythema, desquamation, infiltration, and area of involvement. The higher the score, the more severe the condition of psoriasis. The specific scoring rules are well known in the field of medical diagnosis.
(§2) Ineffective: The PASI score of psoriasis after treatment is more than 50% of the score before treatment, namely, PASI after treatment÷PASI before treatment×100%>50%.

psoriasis [2] = details: human, in vivo
From the text: as §1, §2

[3] = Example 4, person, tretinoin cream, calcipotriol ointment and other treatments
[4] = Example 4, after tretinoin cream, calcipotriol ointment and other treatments
[5] = Example 6, person, tretinoin cream, calcipotriol ointment, methotrexate tablets and other treatments in the past
[6] = Example 6, after tretinoin cream, calcipotriol ointment, methotrexate tablets and other treatments, severe psoriasis
[7] = Example 7, after secukinumab treatment

C=C1/C(=C\C=C2/CCC[C@]3(C)[C@@H]([C@H](C)/C=C/[C@@H](O)C4CC4)CC[C@@H]23)C[C@@H](O)C[C@@H]1O [calcipotriol ointment, calcipotriol]
PASI score (psoriasis [1]; Example 3, person, after 1 month of use): 5.3
PASI improvement vs before treatment (psoriasis [1]; Example 3, after 1 month of use): 10%
effect of treatment (psoriasis [1]; [3]): healed
relapse (psoriasis [1]; [4]): relapsed three months after the drug withdrawal
effect of treatment (psoriasis [1]; [5]): not alleviated
PASI score (psoriasis [1]; [6]): 13.8
skin irritation (psoriasis [2]): severe

CN(Cc1cnc2nc(N)nc(N)c2n1)c1ccc(C(=O)N[C@@H](CCC(=O)O)C(=O)O)cc1 [methotrexate tablets, methotrexate]
relapse (psoriasis [1]; Example 3, after relief, within two years follow-up): relapsed twice
effect of treatment (psoriasis [1]; Example 3, taken after lysozyme buccal tablets withdrawal, self-reported): the psoriasis was relieved
PASI score (psoriasis [1]; Example 4, after oral methotrexate treatment): 9.3
effect of treatment (psoriasis [1]; Example 4, oral treatment after relapse): the condition was not alleviated
effect of treatment (psoriasis [1]; [5]): not alleviated
PASI score (psoriasis [1]; [6]): 13.8

CCOC(=O)c1ccc(C#Cc2ccc3c(c2)C(C)(C)CCS3)nc1 [tazarotene cream, tazarotene]
effect of treatment (psoriasis [1]; Example 5, person, two months of treatment): ineffective

CC1=C(/C=C/C(C)=C/C=C/C(C)=C/C(=O)O)C(C)(C)CCC1 [tretinoin cream, tretinoin]
effect of treatment (psoriasis [1]; [3]): healed
relapse (psoriasis [1]; [4]): relapsed three months after the drug withdrawal
effect of treatment (psoriasis [1]; [5]): not alleviated
PASI score (psoriasis [1]; [6]): 13.8

Adalimumab
PASI decrease (psoriasis [1]; Example 6, after one course of treatment, PASI before 13.8): 32%

secukinumab: IL-17 inhibitor
PASI decrease (psoriasis [1]; [7]): 10%
PASI score (psoriasis [1]; [7]): 8.7
tolerability (psoriasis [2]): intolerance occurred
